Measured values published in PMC11003488 (Journal of Enzyme Inhibition and Medicinal Chemistry, 2023).

Tests used:
[1] = test system: RPMI-8226; test: NCI-60 SRB growth inhibition, one-dose and five-dose; type: cell-based; conditions: Homo sapiens
[2] = test system: EKVX; test: as above; type: cell-based; conditions: Homo sapiens
[3] = test system: NCI-H23; test: as above; type: cell-based; conditions: Homo sapiens
[4] = test system: HCC-2998; test: as above; type: cell-based; conditions: Homo sapiens
[5] = test system: HCT-116; test: as above; type: cell-based; conditions: Homo sapiens
[6] = test system: HCT-15; test: as above; type: cell-based; conditions: Homo sapiens
[7] = test system: KM12; test: as above; type: cell-based; conditions: Homo sapiens
[8] = test system: SK-MEL-2; test: as above; type: cell-based; conditions: Homo sapiens
[9] = test system: UACC-257; test: as above; type: cell-based; conditions: Homo sapiens
[10] = test system: OVCAR-3; test: as above; type: cell-based; conditions: Homo sapiens
[11] = test system: OVCAR-8; test: as above; type: cell-based; conditions: Homo sapiens
[12] = test system: ACHN; test: as above; type: cell-based; conditions: Homo sapiens
[13] = test system: CAKI-1; test: as above; type: cell-based; conditions: Homo sapiens
[14] = test system: SN12C; test: as above; type: cell-based; conditions: Homo sapiens
[15] = test system: UO-31; test: as above; type: cell-based; conditions: Homo sapiens
[16] = test system: MCF7; test: as above; type: cell-based; conditions: Homo sapiens
[17] = test system: MDA-MB-231/ATCC; test: as above; type: cell-based; conditions: Homo sapiens
[18] = test system: T-47D; test: as above; type: cell-based; conditions: Homo sapiens, T47D
[19] = test system: NCI 60-cell line panel (full panel); test: NCI-60 SRB growth inhibition, full panel mean / MG-MID; type: cell-based, human
[20] = test system: Leukaemia cell lines; test: NCI-60 SRB growth inhibition, subpanel; type: cell-based, human; conditions: Homo sapiens, read-out: GI50 MG-MID
[21] = test system: NSCLC cell lines; test: NCI-60 SRB growth inhibition, subpanel; type: cell-based, human; conditions: Homo sapiens, read-out: GI50 MG-MID
[22] = test system: Colon cancer cell lines; test: NCI-60 SRB growth inhibition, subpanel; type: cell-based, human; conditions: Homo sapiens, read-out: GI50 MG-MID
[23] = test system: CNS cancer cell lines; test: NCI-60 SRB growth inhibition, subpanel; type: cell-based, human; conditions: Homo sapiens, read-out: GI50 MG-MID
[24] = test system: Melanoma cell lines; test: NCI-60 SRB growth inhibition, subpanel; type: cell-based, human; conditions: Homo sapiens, read-out: GI50 MG-MID
[25] = test system: Ovarian cancer cell lines; test: NCI-60 SRB growth inhibition, subpanel; type: cell-based, human; conditions: Homo sapiens, read-out: GI50 MG-MID
[26] = test system: Renal cancer cell lines; test: NCI-60 SRB growth inhibition, subpanel; type: cell-based, human; conditions: Homo sapiens, read-out: GI50 MG-MID
[27] = test system: Prostate cancer cell lines; test: NCI-60 SRB growth inhibition, subpanel; type: cell-based, human; conditions: Homo sapiens, read-out: GI50 MG-MID
[28] = test system: Breast cancer cell lines; test: NCI-60 SRB growth inhibition, subpanel; type: cell-based, human; conditions: Homo sapiens, read-out: GI50 MG-MID
[29] = Cytotoxicity towards normal fibroblasts, safety index; type: cell-based, human; conditions: human, WI-38 normal fibroblast cells
[30] = test system: WI-38 normal human fibroblast cells; test: as above; type: cell-based; conditions: WI-38 versus cancer cell lines
[31] = biological target: Human VEGFR-2 (Homo sapiens, UniProt P35968); test: VEGFR-2 inhibition assay; type: biochemical
Sequence of Human VEGFR-2 (P35968 20-1356): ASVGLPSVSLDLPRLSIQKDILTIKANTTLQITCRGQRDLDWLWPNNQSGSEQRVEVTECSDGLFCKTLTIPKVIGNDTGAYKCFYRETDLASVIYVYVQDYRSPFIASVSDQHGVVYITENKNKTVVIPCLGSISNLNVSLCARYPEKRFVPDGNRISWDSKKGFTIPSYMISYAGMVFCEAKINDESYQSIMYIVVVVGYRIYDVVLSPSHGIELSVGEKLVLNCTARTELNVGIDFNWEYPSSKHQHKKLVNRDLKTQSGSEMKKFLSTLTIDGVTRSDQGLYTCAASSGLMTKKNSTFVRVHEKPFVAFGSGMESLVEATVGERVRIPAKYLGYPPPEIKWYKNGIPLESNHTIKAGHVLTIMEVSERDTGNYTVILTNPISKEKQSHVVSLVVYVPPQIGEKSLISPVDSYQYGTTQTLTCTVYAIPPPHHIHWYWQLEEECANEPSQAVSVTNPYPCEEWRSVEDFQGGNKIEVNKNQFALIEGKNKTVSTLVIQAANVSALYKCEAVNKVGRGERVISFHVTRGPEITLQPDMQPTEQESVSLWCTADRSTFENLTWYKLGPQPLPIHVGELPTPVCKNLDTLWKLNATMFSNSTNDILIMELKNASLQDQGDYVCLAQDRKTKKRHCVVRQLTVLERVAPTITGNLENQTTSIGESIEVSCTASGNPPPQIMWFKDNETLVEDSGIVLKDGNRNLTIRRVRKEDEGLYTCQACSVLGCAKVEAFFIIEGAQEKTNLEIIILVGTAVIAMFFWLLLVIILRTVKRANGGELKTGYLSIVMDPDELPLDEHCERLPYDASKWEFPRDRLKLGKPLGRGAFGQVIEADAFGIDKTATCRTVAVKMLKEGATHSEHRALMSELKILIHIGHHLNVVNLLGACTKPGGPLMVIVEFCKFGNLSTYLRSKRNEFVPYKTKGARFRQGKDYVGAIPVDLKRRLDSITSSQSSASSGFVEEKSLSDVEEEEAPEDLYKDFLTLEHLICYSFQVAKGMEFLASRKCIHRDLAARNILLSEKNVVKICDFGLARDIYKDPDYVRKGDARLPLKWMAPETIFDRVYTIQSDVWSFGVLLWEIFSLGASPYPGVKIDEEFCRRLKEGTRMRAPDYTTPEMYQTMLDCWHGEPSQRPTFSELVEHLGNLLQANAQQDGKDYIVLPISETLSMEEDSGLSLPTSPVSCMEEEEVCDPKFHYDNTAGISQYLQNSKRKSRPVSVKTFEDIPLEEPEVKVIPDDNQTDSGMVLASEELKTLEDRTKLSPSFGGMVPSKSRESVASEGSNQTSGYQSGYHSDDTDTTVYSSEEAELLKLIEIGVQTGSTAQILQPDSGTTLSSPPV

[32] = read-out: percent growth inhibition

## Cc1ccc(CNc2cccc(C(=O)/C=C/c3cccnc3)c2)cc1 [Compound 5a, (E)-1–(3-((4-methylbenzyl)amino)phenyl)-3-(pyridin-3-yl)prop-2-en-1-one]
[1]; RPMI-8226
  GI50: 1.76 µM
[1]; RPMI-8226, read-out: percent growth inhibition
  inhibition at 10 µM: 98.6%
[2]
  GI50: 12.8 µM
[2]; [32]
  inhibition at 10 µM: 52.3%
[3]; NCI-H23
  GI50: 12.2 µM
[3]; NCI-H23, read-out: percent growth inhibition
  inhibition at 10 µM: 47.9%
[4]; HCC 2998
  GI50: 14.1 µM
[4]; HCC 2998, read-out: percent growth inhibition
  inhibition at 10 µM: 52.8%
[5]; HCT-116, HCT-116, five-dose screening
  GI50: 2.07 µM
[5]; HCT-116, read-out: percent growth inhibition
  inhibition at 10 µM: 189%
[6]; HCT-15
  GI50: 4.15 µM
[6]; HCT-15, read-out: percent growth inhibition
  inhibition at 10 µM: 156%
[7]; KM12
  GI50: 8.36 µM
[7]; KM12, read-out: percent growth inhibition
  inhibition at 10 µM: 155%
[8]; SK-MEL-2
  GI50: 14.3 µM
[8]; SK-MEL-2, read-out: percent growth inhibition
  inhibition at 10 µM: 35.9%
[9]; UACC-257
  GI50: 14.4 µM
[9]; UACC-257, read-out: percent growth inhibition
  inhibition at 10 µM: 39.6%
[10]; OVCAR-3
  GI50: 7.19 µM
[10]; OVCAR-3, read-out: percent growth inhibition
  inhibition at 10 µM: 84.8%
[11]; OVCAR-8
  GI50: 13.1 µM
[11]; OVCAR-8, read-out: percent growth inhibition
  inhibition at 10 µM: 88.3%
[12]
  GI50: 14 µM
[12]; [32]
  inhibition at 10 µM: 130%
[13]; CAKI-1
  GI50: 11.7 µM
[13]; CAKI-1, read-out: percent growth inhibition
  inhibition at 10 µM: 36.7%
[14]
  GI50: 12.6 µM
[14]; [32]
  inhibition at 10 µM: 118%
[15]; UO-31
  GI50: 11.7 µM
[15]; UO-31, read-out: percent growth inhibition
  inhibition at 10 µM: 47.5%
[16]; MCF7
  GI50: 2.79 µM
[16]; MCF7, read-out: percent growth inhibition
  inhibition at 10 µM: 148%
[17]; MDA-MB-231
  GI50: 11.3 µM
[17]; MDA-MB-231, read-out: percent growth inhibition
  inhibition at 10 µM: 110%
[18]
  GI50: 9.84 µM
[18]; [32]
  inhibition at 10 µM: 105%
[19]; Homo sapiens, 60 cell, read-out: Full panel GI50 mean
  GI50: 10.8 µM
[19]; mean over NCI-60 panel, single dose 10 µM
  Full panel Mean GI %: 82.76%
[20]
  GI50: 3.34 µM
[21]
  GI50: 13.7 µM
[22]
  GI50: 8.84 µM
[23]
  GI50: 13.2 µM
[24]
  GI50: 10.6 µM
[25]
  GI50: 11.4 µM
[26]
  GI50: 13.3 µM
[27]
  GI50: 13.8 µM
[28]
  GI50: 9.21 µM
[29]
  GI50 at 48 h: > 100 µM
[30]
  Safety index: >1
[31]
  IC50: 2 ± 0.023 µM
